According to US5648382A, “Cyclohexane compounds” (Adir et Compagnie, priority 1995, dated 1997):

How the values were obtained:
[1] = system: chicken embryo chorio-allantoic membrane; assay: Inhibition of neovascularization of chicken embryo chorioallantoic membrane; assay type: in vivo; conditions: avascular zone greater than 4 mm in diameter, 48 hours after disk placed on CAM on day 6
Description: Example B: Inhibition of Neovascularization of Chicken Embryo Chorioallantoic Membrane
This test was carried out with chicken embryos in the manner described above (Crum R., Szabo S. and Folkman J., Science, (1985), 230, 1375-1378). The fertilized eggs are incubated at 37° C. (D0). A pocket of air is created by removing 1 ml of albumin (D3), then a window is cut from the shell (D4) and the vitelline membrane is removed in order to separate the chorio-allantoic membrane (CAM).
The products to be tested are dissolved in ethanol and placed on methylcellulose disks which are dried and placed on the CAM on day 6. From 8 to 16 eggs are used per group. The zone situated round the disk is then examined 48 hours later. The eggs having an avascular zone greater than 4 mm in diameter are counted and the results are expressed as a percentage of eggs having an avascular zone.

tumour = assay: Antitumour activity in mice, subcutaneous tumour implant; assay type: in vivo; conditions: i.p., day 1 to day 12, tumour weight on day 13
Description: Example C: Antitumour Activity
The antitumour activity of the compounds of the invention was studied in accordance with the protocol described by R. I. Geran et al, Cancer Chemotherapy Reports, (1972), Part 3, pages 3 et seq.
Mice were divided at random into treated groups (11 mice per group) and a control group of 40 mice.
Tumour fragments were implanted on day 0 (subcutaneous implant). The compounds to be tested were administered for 12 days (day 1 to day 12) by the i.p. route.
The average weight of the tumour was determined on day 13 after implantation. The percentage inhibition was calculated in accordance with the following formula: [formula] As an example, the compound of Example 27 gave the following results: […]

| SMILES | % of eggs having an avascular zone [1] | % inhibition (tumour weight) (tumour; 30 mg/kg) | % inhibition (tumour weight) (tumour; 60 mg/kg) |
| --- | --- | --- | --- |
| CC1OC1(C)[C@@]1(O)C[C@H](OC(=O)NC(=O)CCl)CC[C@]12CO2 (relative stereo) [Example 7, (3S*; 4R*, 6R*)-6-Chloroacetylcarbamoyloxy-4-hydroxy-4-(2,3-di-methyl-2-oxiranyl)-1-oxa-spiro[2.5]octane] | 81 ± 10% | – | – |
| C=C(C)[C@]12O[C@H]1[C@H](OC(=O)NC(=O)CCl)CC[C@]21CO1 (relative stereo) [Example 29, (1S*,2S*,5R*,6S*)-5-Chloroacetylcarbamoyloxy-1-isopropenyl-2(2-spiro-oxiranyl)-7-oxabicyclo[4.1.0]heptane] | 66 ± 6% | – | – |
| O=C(CCl)NC(=O)O[C@@H]1CC[C@]2(CO2)[C@@](O)(CCCCCc2ccccc2)[C@@H]1Br (relative stereo) [Example 10, (3S*, 4S*, 5R*, 6R*)-5-Bromo-6-chloroacetylcarbamoyloxy-4-hydroxy-4-(5-phenylpentyl)-1-oxa-spiro[2.5]octane] | 73 ± 11% | – | – |
| CC1([C@]23O[C@H]2[C@@H](OC(=O)NC(=O)CCl)CC[C@]32CO2)CO1 (single isomer, unassigned) [Example 17 Diastereoisomer A, (1R*,2S*,5S*,6S*)-5-Chloroacetylcarbamoyloxy-1-[(2S* and 2R*)-(2-methyloxiran-2-yl)]-2-(2-spiro-oxiranyl)-7-oxabicyclo[4.1.0]heptan] | 74 ± 7% | – | – |
| CC1([C@]23O[C@H]2[C@H](OC(=O)NC(=O)CCl)CC[C@]32CO2)CO1 (single isomer, unassigned) [Example 30 Diastereoisomer A, (1R*,2S*,5R*,6S*)-5-Chloroacetylcarbamoyloxy-1-[(2S* and 2R*)-(2-methyloxiran-2-yl)]-2-(2-spiro-oxiranyl)-7-oxabicyclo[4.1.0]heptan] | 75 ± 7% | – | – |
| O=C(CCl)NC(=O)O[C@H]1CC[C@]2(CO2)[C@](O)(C2OC2CCCc2ccccc2)[C@H]1Br (single isomer, unassigned) [Example 13] | 70 ± 16% | – | – |
| O=C(CCl)NC(=O)O[C@H]1CC[C@]2(CO2)[C@@](CCCCCc2ccccc2)(OC(=O)NC(=O)CCl)C1 (relative stereo) [Example 28, (3S*,4S*6S*)-4,6-Dichloroacetylcarbamoyloxy-4-(5-phenylpentyl)-1-oxa-spiro[2.5]octane] | 90 ± 4% | – | – |
| CC1([C@]23O[C@H]2[C@H](OC(=O)NC(=O)CCl)CC[C@]32CO2)CO1 (single isomer, unassigned) [Example 30 Diastereoisomer B, (1R*,2S*,5R*,6S*)-5-Chloroacetylcarbamoyloxy-1-[(2S* and 2R*)-(2-methyloxiran-2-yl)]-2-(2-spiro-oxiranyl)-7-oxabicyclo[4.1.0]heptan] | 68 ± 5% | – | – |
| CC1([C@@]23OC(=O)O[C@@H]2[C@H](OC(=O)NC(=O)CCl)CC[C@]32CO2)CO1 (relative stereo) [Example 23, (3S*,4S*,5R*,6R*)-6-Chloroacetylcarbamoyloxy-4-(2-methyl-oxiran-2-yl)-1-oxa-spiro[2.8]benzo[1.3]dioxol-2-one] | 78 ± 7% | – | – |
| O=C(CCl)NC(=O)O[C@@H]1CC[C@]2(CO2)[C@](CCCCCc2ccccc2)(OC(=O)NC(=O)CCl)C1 (relative stereo) [Example 27, (3S*,4R*,6R*)-4,6-Dichloroacetylcarbamoyloxy-4-(5-phenylpentyl)-1-oxa-spiro[2.5]octane] | – | 56% | 82% |
| CC(C)CCCC12OC1C(OC(=O)NC(=O)CCl)CCC21CO1 (stereo not drawn) [Example 21, 5-Chloroacetylcarbamoyloxy-2-(2-spiro-oxiranyl)-1-(4-methyl-pentyl)-7-oxabicyclo[4.1.0]heptane] | 76 ± 6% | – | – |
| O=C(CCl)NC(=O)O[C@@H]1CC[C@]2(CO2)[C@@]2(CCCCCc3ccccc3)O[C@@H]12 (relative stereo) [Example 18, (1S*,2S*,5R*,6S*)-5-Chloroacetylcarbamoyloxy-2-(2-spiro-oxiranyl)-1-(5-phenyl-pentyl)-7-oxabicyclo[4.1.0]heptane] | 69 ± 6% | – | – |
| C[C@@]1(OC(=O)NC(=O)CCl)CC[C@@H](OC(=O)NC(=O)CCl)[C@@H]2O[C@@]21CCCCCc1ccccc1 (relative stereo) [Example 19, (1S*,2R*,5R,*6S*)-2,5-Dichloroacetylcarbamoyloxy-2-methyl-1-(5-phenylpentyl)-7-oxabicyclo[4.1.0]heptane] | 76 ± 9% | – | – |
| CC1OC1(C)[C@@]1(O)C[C@H](OC(=O)NC(=O)CCl)CC[C@]12CO2 (relative stereo) [Example 6, (3S*, 4R*, 6R*)-6-Chloroacetylcarbamoyloxy-4-hydroxy-4-(2,3-dimethyloxiran-2-yl)-1-oxa-spiro[2.5]octane] | 79 ± 9% | – | – |
